Reference: patent publication EP4603105A1, “PHARMACEUTICAL COMPOSITION CONTAINING CYCLIC COMPOUND HAVING SELECTIVE KRAS INHIBITORY EFFECT AGAINST HRAS AND NRAS” (CHUGAI SEIYAKU KABUSHIKI KAISHA, priority 2022, dated 2024)
*1 amine or outer side, *2 acyl side, *3 side chain or, on linkers, in order; H or OH if unused. Where a SMILES comes first, the peptide text is derived from it. Bridges are numbered along the chain shown (N, C = ends). [ ]: non-standard residue; d: D form. The star is where a group is joined. hPhe(3-Cl-4-CF3) = N[C@@H](CCc1ccc(C(F)(F)F)c(Cl)c1)C(=O)O; NPrPhe(4-CF3) = CCCN[C@@H](Cc1ccc(C(F)(F)F)cc1)C(=O)O; X1 = CCCCN([C@@H](Cc1ccc(C)cc1)C(=O)[*:2])[*:1]; NMeGly(cPent) = CN[C@H](C(=O)O)C1CCCC1; Hyp = O=C(O)[C@@H]1C[C@@H](O)CN1; NMeD = CN[C@@H](CC(=O)O)C(=O)O; NMeL = CN[C@@H](CC(C)C)C(=O)O; Morpholide = C1CN(*)CCO1; Ac5c = NC1(C(=O)O)CCCC1; Ac4c = NC1(C(=O)O)CCC1; Sar = CNCC(=O)O

Assays:
[1] = test system: human lung cancer strain NCI-H441; format: cell-based
How it was run: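 Step one: dispense the test compound in serial DMSO dilutions. Step three: add the reagent and measure […].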

[2] = biological target: GDP-bound NRAS wild-type protein (Homo sapiens, UniProt P01111); test: Binding to NRAS by surface plasmon resonance (SPR), KD and KD ratio to KRAS
How it was run: (§1)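 Biotinylated GDP-bound RAS was captured at about 100–300 RU. Running buffer: HBS pH 7.4, 10 mM MgCl2, 10 µM GDP, 1 mM DTT, 0.01% Tween 20, 4% DMSO.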

HRAS wild-type protein = HRAS wild-type protein (Homo sapiens, UniProt P01112); test: Binding to HRAS by surface plasmon resonance (SPR), KD and KD ratio to KRAS
How it was run: as §1

[3] = ratio of KD for GDP-bound NRAS wild-type protein to KD for KRAS
[4] = ratio of KD for HRAS wild-type protein to KD for KRAS
[5] = ratio of the KD value with respect to GDP-bound NRAS wild-type protein to the KD value with respect to KRAS
[6] = ratio of the KD value with respect to HRAS wild-type protein to the KD value with respect to KRAS

HRAS wild-type protein, sequence (P01112 whole entry): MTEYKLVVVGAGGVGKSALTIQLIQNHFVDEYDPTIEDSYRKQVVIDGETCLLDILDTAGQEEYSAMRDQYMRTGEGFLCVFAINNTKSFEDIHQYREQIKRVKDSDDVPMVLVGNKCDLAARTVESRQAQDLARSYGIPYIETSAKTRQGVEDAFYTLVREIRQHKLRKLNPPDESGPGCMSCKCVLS
GDP-bound NRAS wild-type protein, sequence (P01111 whole entry): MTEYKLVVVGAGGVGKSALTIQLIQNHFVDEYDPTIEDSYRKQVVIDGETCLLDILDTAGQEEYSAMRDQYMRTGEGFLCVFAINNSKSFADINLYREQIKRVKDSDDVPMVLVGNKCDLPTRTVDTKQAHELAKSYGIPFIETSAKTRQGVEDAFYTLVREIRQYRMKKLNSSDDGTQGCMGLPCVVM

| IC50 [1] [nM] | Compound | NRAS /KRAS [2, 3] | HRAS /KRAS (HRAS wild-type protein; [4]) | NRAS /KRAS [2, 5] | HRAS /KRAS (HRAS wild-type protein; [6]) |
| --- | --- | --- | --- | --- | --- |
| 1.9 | CCCN1C(=O)CN(C)C(=O)CN(C)C(=O)[C@H]([C@@H](C)CC)NC(=O)[C@H](CC(C)C)N(C)C(=O)C[C@@H](C(=O)N2CCOCC2)N(C)C(=O)[C@H](C2CCCC2)N(C)C(=O)C2(CCCC2)NC(=O)[C@@H]2C[C@@H](OC)CN2C(=O)[C@H](CCc2ccc(C(F)(F)F)c(Cl)c2)NC(=O)CN(C)C(=O)[C@@H]1Cc1ccc(C(F)(F)F)cc1 [PP0262] ([NMeL]I[Sar][Sar][NPrPhe(4-CF3)][Sar][hPhe(3-Cl-4-CF3)][Hyp](Me)[Ac5c][NMeGly(cPent)][NMeD]-Morpholide; lactam N-11) | B (a compound having 3 or more and less than 10 is denoted as B) | B (a compound having 3 or more and less than 10 is denoted as B) |  |  |
| 4.9 | CCCN1C(=O)CN(C)C(=O)CN(C)C(=O)[C@H]([C@@H](C)CC)NC(=O)[C@H](CC(C)C)N(C)C(=O)C[C@@H](C(=O)N2CCOCC2)N(C)C(=O)[C@H](C2CCCC2)N(C)C(=O)C2(CCCC2)NC(=O)[C@@H]2C[C@@H](O)CN2C(=O)[C@H](CCc2ccc(C(F)(F)F)c(Cl)c2)NC(=O)CN(C)C(=O)[C@@H]1Cc1ccc(C(F)(F)F)cc1 [PP0241] ([NMeL]I[Sar][Sar][NPrPhe(4-CF3)][Sar][hPhe(3-Cl-4-CF3)][Hyp][Ac5c][NMeGly(cPent)][NMeD]-Morpholide; lactam N-11) | B (a compound having 3 or more and less than 10 is denoted as B) | C (A compound having a KD ratio of 0.1 or more and less than 3 is denoted as C) |  |  |
| 6 | CCC(CC)[C@H]1C(=O)N(C)[C@H](C(=O)N(C)C)CC(=O)N(C)[C@H]2CCC/C=C/c3ccc(cc3)C[C@@H](C(=O)N(C)CC(=O)N[C@@H](CCc3cc(F)c(C(F)(F)F)c(F)c3)C(=O)N3C[C@H](OC(C)C)C[C@H]3C(=O)NC3(CC(C)(C)C3)C(=O)N1C)N1CC/C=C\C[C@@H](C1=O)N(C)C(=O)CN(C)C(=O)[C@H]([C@@H](C)CC)NC2=O [PP2594] | A (a compound having 10 or more and less than 20 is denoted as A) | A (a compound having 10 or more and less than 20 is denoted as A) |  |  |
| 1.8 | CCCN1C(=O)CN(C)C(=O)CN(C)C(=O)[C@H]([C@@H](C)CC)NC(=O)[C@H](CC(C)C)N(C)C(=O)C[C@@H](C(=O)N(C)C)N(C)C(=O)[C@H](C2CCCC2)N(C)C(=O)C2(CCC2)NC(=O)[C@@H]2CCCN2C(=O)[C@H](CCc2ccc(C(F)(F)F)c(Cl)c2)NC(=O)CN(C)C(=O)[C@@H]1Cc1ccc(C(F)(F)F)cc1 [PP0412] ([NMeL]I[Sar][Sar][NPrPhe(4-CF3)][Sar][hPhe(3-Cl-4-CF3)]P[Ac4c][NMeGly(cPent)][NMeD]-NMe2; lactam N-11) |  |  | B (a compound having 3 or more and less than 10 is denoted as B) | C (A compound having a KD ratio of 0.1 or more and less than 3 is denoted as C) |
| 22.6 | CCOC[C@H]1C(=O)N[C@@H]([C@@H](C)CC)C(=O)N(C)CC(=O)N(C)[C@H]2C/C=C\CCN(C2=O)[C@@H](Cc2ccc(C(F)(F)F)cc2)C(=O)N(C)CC(=O)N[C@@H](CCc2ccc(C(F)(F)F)c(OC)c2)C(=O)N2C[C@@H](C)C[C@H]2C(=O)NC2(CCC2)C(=O)N(C)[C@@H](C2CCCC2)C(=O)N(C)[C@H](C(=O)N(C)CC)CC(=O)N1C [PP2026] |  |  | A (a compound having 10 or more and less than 20 is denoted as A) | A (a compound having 10 or more and less than 20 is denoted as A) |
| 21.4 | CCO[C@@H]1C[C@H]2C(=O)NC3(CCC3)C(=O)N(C)[C@@H](C3CCCC3)C(=O)N(C)[C@H](C(=O)N(C)C)CC(=O)N(C)[C@@H](COC)C(=O)N[C@@H]([C@@H](C)CC)C(=O)N(C)CC(=O)N(C)[C@H]3C/C=C\CCN(C3=O)[C@@H](Cc3ccc(C(F)(F)F)cc3)C(=O)N(C)CC(=O)N[C@@H](CCc3cc(F)c(C(F)(F)F)c(F)c3)C(=O)N2C1 [PP1113] | A (a compound having 10 or more and less than 20 is denoted as A) | A (a compound having 10 or more and less than 20 is denoted as A) |  |  |
| 3.8 | CCCCN1C(=O)CN(C)C(=O)CN(C)C(=O)[C@H]([C@@H](C)CC)NC(=O)[C@H](CC(C)C)N(C)C(=O)C[C@@H](C(=O)N2CCOCC2)N(C)C(=O)[C@H](C2CCCC2)N(C)C(=O)C2(CCCC2)NC(=O)[C@@H]2CCCN2C(=O)[C@H](CCc2ccc(C(F)(F)F)c(Cl)c2)NC(=O)CN(C)C(=O)[C@@H]1Cc1ccc(C)cc1 [PP0062] ([NMeL]I[Sar][Sar][X1][Sar][hPhe(3-Cl-4-CF3)]P[Ac5c][NMeGly(cPent)][NMeD]-Morpholide; lactam N-11) | C (A compound having a KD ratio of 0.1 or more and less than 3 is denoted as C) | C (A compound having a KD ratio of 0.1 or more and less than 3 is denoted as C) |  |  |
